{
  "source": "patent US20230145666A1",
  "about": "“REAL TIME ELECTRONIC CELL SENSING SYSTEMS AND APPLICATIONS FOR CELL-BASED ASSAYS” (Agilent Technologies, Inc., priority 2002, published 2023)",
  "assay_type_in_all_cases": "cell-based, rat",
  "key": {"RBL-2H3 mast cells [1]": {"tested_on": "RBL-2H3 mast cells", "test": "Impedance monitoring of RBL-2H3 mast cell response to IgE and antigen", "details": "anti-DNP IgE sensitized, 100 ng/mL DNP-BSA (FIG. 14)", "method": "FIG. 13 is a plot of cell index recording indicating mast cell responses to IgE in the presence or absence of antigen. 20,000 RBL-2H3 mast cells were seeded in each well of a 16× device. Cells were allowed to adhere and grow for 22 hours while being recorded. At 22 hours the cells were treated with either 1 microgram/mL non-specific mouse IgG or 1 microgram/mL anti-DNP mouse IgE. The electronic impedance response of the cells were continued to be recorded for an additional 20 hours after which the media in the wells were aspirated and replaced with fresh serum free media. The cells were allowed to recover for 30 minutes and then treated with the 1 microgram/mL of the antigen, DNP-BSA. The electronic impedance response of the cells was measured for an additional 3 hours.\nApproximately 14 hours after seeding the cells were incubated with 100 ng/mL anti-DNP IgE followed by application of 100 ng/mL DNP-BSA 24 hours later. Impedance measurements (indicated as Cell Index) were performed at 5 minute intervals post DNP-BSA application.\nFIGS. 16A-B show IgE alone-mediated increase in mast cell-electrode impedance response and its effect on antigen-mediated activation step. (A) RBL-2H3 cells seeded on microelectronic sensor arrays were left untreated or treated with indicated concentration of anti-DNP IgE. The impedance value indicated as Cell Index was continuously monitored and recorded using a cell-substrate impedance monitoring system. […] The impedance value indicated as Cell Index was continuously monitored using the system. […]\nRBL-2H3 cells were seeded in the 16X device chamber (depicted in FIG. 2) at 20,000 cells/well and the attachment and growth of the cells in the 37° C. tissue culture incubator were monitored in real-time using the cell-substrate monitoring system. […]\n20,000 RBL-2H3 cells were seeded per well of a 16X microtiter device and monitored by the impedance measuring system. […] The cell-electrode impedance was continuously measured and the corresponding, time dependent Cell-Index values were derived and recorded. […]"}, "RBL-2H3 mast cells [2]": {"tested_on": "RBL-2H3 mast cells", "test": "Fluorescence microscopy of actin cytoskeleton (rhodamine-phalloidin)", "details": "DNP-BSA cross-linking", "method": "FIGS. 15A-B show correlation between cell-electrode impedance response of RBL-2H3 mast cells and cell morphological dynamics and mediator release. (A) RBL-2H3 mast cells were sensitized with 100 ng/mL IgE or treated with a control IgG antibody and subsequently activated with DNP-BSA. The cells were fixed with paraformaldehyde at the indicated time points, permeablized and stained with rhodamine-phalloidin. The cells were visualized and photographed with a Nikon E-400 immunoflourescence microscope equipped with a CCD camera. (B) RBL-2H3 cells were sensitized with IgE, activated by the addition of DNP-BSA.\nRBL-2H3 cells were seeded in 16 well Lab-Tec chamber slides and allowed to attach and spread for 6 hours. The cells were stimulated with anti-DNP IgE at a final concentration of 100 ng/mL or a non-specific mouse IgG at 100 ng/mL and then 16 hours later, the media was aspirated, replaced with fresh media and treated with 100 ng/mL DNP-BSA for the indicated time and then fixed with 4 % parafarmaldehyde. The cells were washed 3X with PBS, permeablized in PBS containing 0.2% TX-100 and blocked in PBS containing 0.5 % BSA. The cells were then stained with rhodamine-phalloidin for 30 minutes, washed 3X with PBS and visualized and imaged using the tritc filter on a Nikon E400 epi-fluorescence microscope and Nikon ACT software. […]"}, "[3]": {"tested_on": "IgE-mediated RBL-2H3 mast cell activation", "test": "Cell-substrate impedance assay: pharmacological inhibition of antigen-mediated mast cell activation", "details": "at peak response", "method": "RBL-2H3 mast cells were sensitized with 100 ng/mL anti-DNP-IgE and then incubated with the indicated concentrations of the Bisindolylmaleimide 1 hour prior to addition of 100 ng/mL DNP-BSA. The impedance value indicated as Cell Index was monitored using a cell-substrate impedance monitoring system of the present invention.\nThe real-time cell-substrate impedance monitoring system comprises three components, an impedance analyzer, a device station, and one or more 16X microtiter devices. Microelectrode sensor arrays were fabricated on glass slides using lithographical microfabrication methods and the electrode-containing slides were assembled to plastic trays to form 16 electrode-containing wells. The device station of the system receives the 16X microtiter devices and is capable of electronically switching any one of the wells to the sensor (impedance) analyzer for impedance measurement. In operation, the devices with cells cultured in the wells are placed into a device station that is located inside an incubator. Electrical cables connect the device station to the sensor (impedance) analyzer. Under the impedance monitoring system’s software control, the impedance analyzer can automatically select wells to be measured and continuously conduct impedance measurements. The impedance data from the analyzer is transferred to a computer, analyzed and processed by integrated software.\nTo quantify cell status based on the measured cell-electrode impedance, a parameter termed Cell Index is derived, according to\nwhere Rb (f) and Rcell (f) are the frequency dependent electrode resistances (a component of impedance) without cells or with cell present, respectively. N is the number of the frequency points at which the impedance is measured. Thus, Cell Index is a quantitative measure of the status of the cells in an electrode-containing well. Under the same physiological conditions, more cells attached on to the electrodes leads to larger Rcell (f) value, leading to a larger value for Cell Index. […]\n20,000 RBL-2H3 cells were seeded per well of a 16X microtiter device and monitored by the impedance measuring system. […] The cell-electrode impedance was continuously measured and the corresponding, time dependent Cell-Index values were derived and recorded.\nRBL-2H3 cells were seeded in a 16X microtiter plate device and pre-stimulated with anti-DNP-IgE were incubated for 1 hour with the indicated doses of the PKC-specific inhibitor Bisindolylmaleimide and subsequently treated with 100 ng/mL DNP-BSA (FIG. 17). The dose-dependent inhibition of RBL-2H3 mast cell activation by Bisindolylmaleimide can be monitored on the cell-substrate monitoring system in real-time. […]"}, "[4]": {"details": "Rattus norvegicus, RBL-2H3, mast cell activation by impedance, Bisindolylmaleimide N=3, SU6656 N=5, U73122 N=5, Piceatannol N=1, read-out: IC50±SD"}},
  "note": "Read-outs that look alike come from different tables or passages of the source.",
  "data": [
    {"compound": "DNP-BSA: multi-valent antigen DNP-BSA", "values": [
      {"measurement": "time of return to baseline", "setting": "RBL-2H3 mast cells [1]", "value": "approximately 2.5 hours"},
      {"measurement": "time to detectable impedance increase", "setting": "RBL-2H3 mast cells [1]", "value": "≤ 5", "unit": "min"},
      {"measurement": "time to maximal impedance increase", "setting": "RBL-2H3 mast cells [1]", "value": "≤ 30", "unit": "min"},
      {"measurement": "time at which extensive ruffling is apparent", "setting": "RBL-2H3 mast cells [2]; printed as post IgE stimulation", "value": 2.5, "unit": "min"},
      {"measurement": "time of peak cytoskeletal reorganization", "setting": "RBL-2H3 mast cells [2]; printed as post-IgE stimulation", "value": "30 to 45", "unit": "min"}
    ]},
    {"compound": "Oc1cc(O)cc(/C=C/c2ccc(O)c(O)c2)c1", "note": "[Piceatannol]", "values": [
      {"measurement": "IC50", "setting": "[3]; [4]", "value": 1, "unit": "µM"}
    ]},
    {"compound": "CN(C)S(=O)(=O)c1ccc2c(c1)/C(=C/c1cc3c([nH]1)CCCC3)C(=O)N2", "note": "[SU6656]", "values": [
      {"measurement": "IC50", "setting": "[3]; [4]", "value": "5.8 ± 3.5", "unit": "µM"}
    ]},
    {"compound": "COc1ccc2c(c1)CC[C@@H]1[C@@H]2CC[C@]2(C)[C@@H](NCCCCCCN3C(=O)C=CC3=O)CC[C@@H]12", "note": "[U73122]", "values": [
      {"measurement": "IC50", "setting": "[3]; antigen-mediated RBL-2H3 activation, read-out: IC-50 value", "value": "~1", "unit": "µM"},
      {"measurement": "IC50", "setting": "[3]; mast cell activation by impedance, Bisindolylmaleimide N=3, SU6656 N=5, U73122 N=5, Piceatannol N=1, read-out: IC50±SD", "value": "0.93 ± 0.6", "unit": "µM"}
    ]}
  ]
}
